Key:
TRPV4 [1] = target: T1, TRPV4 (Mus musculus, UniProt Q9EPK8); assay: Calcium imaging of TRPV4-mediated [Ca2+]i in pancreatic acini (agonists, shear stress, Yoda1 sustained phase); format: cell-based
T1 construct: endogenous in cells; host or cells: freshly isolated mouse pancreatic acini (C57BL/6J WT)
Experimental: (§1) Mouse pancreatic acini were isolated using a standard collagenase digestion protocol. Isolated acini were plated on a thin-layered, Matrigel-coated, glass-bottom, culture plate (MatTek, P35G-0-14-C). Freshly isolated acini were used in each experiment.
Parallel-plate fluid flow chambers (μ-Slide I 0.4 Luer, and μ-Slide I 0.2 Luer from Ibidi GmbH) were used to measure the shear stress-induced changes in intracellular calcium, mitochondrial depolarization, and trypsin activation. The constant flow rate with shear stress (T) was determined as follows: τ=η×[…] φ for μ-Slide I 0.4 Luer and τ=η×330.4 φ for μ-Slide I 0.2 Luer, where η=viscosity of the medium and φ=flow rate (according to the manufacturer's instructions, Ibidi).
(§2) Calcium imaging in pancreatic acini was performed as previously described. The chemicals used in calcium imaging experiments included the following: Yoda1 (Tocris; 5586), GsMTx4 (Abcam; ab141871), 5′,6′-EET (Santa Cruz Biotechnology; sc-221066), AA (Millipore Sigma; A3611), HC067047 (Tocris; 4100), GSK1016790A (Millipore Sigma; G0798), RN1734 (Tocris; 3746), AACOCF3 (Tocris; 1462), YM26734 (Tocris; 2522), GF109203X (Tocris; 0741), and CCK8 (Sigma-Aldrich).

TRPV4 [2] = target: T1, TRPV4; assay: Calcium imaging of TRPV4-mediated [Ca2+]i in mouse PSCs; format: cell-based
Experimental: (§3) Mouse and human PSCs were isolated using collagenase digestion. Modified Krebs Henseleit Buffer (KHB) solution (100 mL) was prepared as previously described by Romac et al., Nat. Commun. 9(1):1715 (2018). Pancreatic tissue was digested with 2 mg of collagenase NB 8 (SERVA, catalog 17456) dissolved in 10 mL of modified KHB solution containing 1 mg soybean trypsin inhibitor (SBTI 1-S; Millipore Sigma, catalog T9003) and 20 mg BSA (Thermo Fisher Scientific; BP1600-100). Digestion solution (5 mL) was used to inflate the pancreas. Pancreas with 5 mL of digestion solution was incubated in a shaking water bath for 10 minutes at 37° C. The solution was then discarded. The pancreas tissue was cut into small pieces and digested with fresh 5 mL digestion buffer. Tissue was incubated in a shaking water bath for 40 minutes at 37° C. The cells were then separated from tissue by pipetting up-down with a 10 mL pipette and passed sequentially through a 70 μm and a 40 μm cell strainer. The filtrate was centrifuged at 150×g for 3 minutes at room temperature. The cells were washed with 10 mL Leibovitz's media (Thermo Fisher Scientific, catalog 11415-064), passed through a 20 μm filter, and centrifuged at 80×g for 3 minutes at room temperature. The supernate was removed, and isolated stellate cells were plated on a thin-layered Matrigel-coated glass bottom culture plate (MatTek, P35G-0-14-C). Before plating the cells, Matrigel solution (Corning, catalog 354234) at a ratio of 1.5:100 DMEM/F12 (Thermo Fisher Scientific, catalog 11330-032) was poured onto the culture plate and incubated for 2 hr at 37° C. to form a thin layer of Matrigel coating. Matrigel mixture was removed, and the plate was washed with PBS before cells were plated. Cell culture media, DMEM/F12 with 5% FBS was used for mouse stellate cells. Fresh, human pancreatic tissue was digested with collagenase as described above with modifications. […] The cell viability following Yoda1 treatment was analyzed using the Live/Dead cell imaging kit (Thermo Fisher Scientific, catalog R37601). […]

TRPV4 [3] = target: T2, TRPV4 (Homo sapiens, UniProt Q9HBA0); assay: Calcium imaging of TRPV4-mediated [Ca2+]i in human PSCs; format: cell-based
T2 construct: Fresh, human pancreatic tissue was digested with collagenase as described above with modifications; endogenous in cells; host or cells: primary human pancreatic stellate cells from fresh human pancreatic tissue
Experimental: as §3, with “temperature.” for “temperature. The supernate was removed, and isolated stellate cells were plated on a thin-layered Matrigel-coated glass bottom culture plate (MatTek, P35G-0-14-C). Before plating the cells, Matrigel solution (Corning, catalog 354234) at a ratio of 1.5:100 DMEM/F12 (Thermo Fisher Scientific, catalog 11330-032) was poured onto the culture plate and incubated for 2 hr at 37° C. to form a thin layer of Matrigel coating. Matrigel mixture was removed, and the plate was washed with PBS before cells were plated. Cell culture media, DMEM/F12 with 5% FBS was used for mouse stellate cells. Fresh, human pancreatic tissue was digested with collagenase as described above with modifications.”

KPCY cells = assay: Orthotopic KPCY cell PDAC model with TRPV4 blocker via osmotic minipump; format: in vivo, mouse; conditions: GSK2193874 20 mg/mL, 100 μL in subcutaneous osmotic minipump, 20 days; preliminary
Experimental: In this experimental model, KPCY cells (100,000 cells in 25 μL phosphate buffer saline pH 7, containing 1% Matrigel) are injected into the tail region of the pancreas with and without a TRPV4 blocker to investigate if a TRPV4 inhibitor can inhibit PDAC growth and stop cancer cell metastasis. For accurate and continuous dosing, the TRPV4 blocker is placed in an infusion osmotic minipump (ALZET) implanted subcutaneously. Mice are observed for 20 days. On day 20, liver and pancreas tissue are processed for microscopic imaging and quantification of mRNA levels. Serum samples are collected for analysis and quantification of pro-metastatic factors.
Tumor growth and serum SAA were measured 20 days after transplantation of KPCY cells into the pancreas, as described in FIG. 33. Mice were treated with GSK2193874 (20 mg/mL) dissolved in 6% cavitron saline buffer and 100 μL drug solution was loaded in an osmotic minipump implanted subcutaneously for 20 days.
KPCY cells resuspended in PBS+1% matrigel after trypsinization. Either 10,000 or 100,000 cells in 20 μl PBS were injected into the pancreatic tail. […]
Orthotopic injection of KPCY cells with implantation of micro-osmotic pump (Alzet, 1004) filled with either vehicle (6% cavitron W7 HP7 in water—Ashland) or GSK2193874 at 20 mg/mL. Mice were euthanized 20 days later, and organs were measured and harvested. […]

pancreatic acini = assay: CCK-induced [Ca2+]i in pancreatic acini; format: cell-based, mouse; conditions: HC067 1 μM; CCK 1 nM
Experimental: as §1, §2

T1 sequence (Q9EPK8 whole entry): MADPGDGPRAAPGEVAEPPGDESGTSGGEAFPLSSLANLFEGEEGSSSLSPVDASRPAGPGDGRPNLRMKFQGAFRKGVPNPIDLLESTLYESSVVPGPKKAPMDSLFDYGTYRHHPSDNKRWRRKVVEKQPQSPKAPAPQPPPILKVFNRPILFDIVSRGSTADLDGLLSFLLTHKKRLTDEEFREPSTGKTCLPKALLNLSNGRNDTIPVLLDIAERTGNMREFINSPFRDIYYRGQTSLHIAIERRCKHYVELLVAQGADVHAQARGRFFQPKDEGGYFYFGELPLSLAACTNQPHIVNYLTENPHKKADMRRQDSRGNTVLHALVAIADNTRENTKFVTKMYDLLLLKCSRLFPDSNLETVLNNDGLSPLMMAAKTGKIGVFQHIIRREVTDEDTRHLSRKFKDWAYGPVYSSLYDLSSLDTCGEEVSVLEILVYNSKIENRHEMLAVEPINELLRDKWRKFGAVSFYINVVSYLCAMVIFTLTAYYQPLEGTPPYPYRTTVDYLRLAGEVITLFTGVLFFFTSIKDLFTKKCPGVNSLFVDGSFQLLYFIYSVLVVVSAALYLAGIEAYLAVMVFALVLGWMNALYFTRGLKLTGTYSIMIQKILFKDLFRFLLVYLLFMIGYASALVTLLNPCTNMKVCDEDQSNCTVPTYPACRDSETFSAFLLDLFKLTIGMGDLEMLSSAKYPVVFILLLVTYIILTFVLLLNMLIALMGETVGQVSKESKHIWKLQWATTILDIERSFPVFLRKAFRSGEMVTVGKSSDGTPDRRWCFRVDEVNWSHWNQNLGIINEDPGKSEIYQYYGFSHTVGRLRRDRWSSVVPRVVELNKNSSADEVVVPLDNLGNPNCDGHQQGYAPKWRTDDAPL
T2 sequence (Q9HBA0 whole entry): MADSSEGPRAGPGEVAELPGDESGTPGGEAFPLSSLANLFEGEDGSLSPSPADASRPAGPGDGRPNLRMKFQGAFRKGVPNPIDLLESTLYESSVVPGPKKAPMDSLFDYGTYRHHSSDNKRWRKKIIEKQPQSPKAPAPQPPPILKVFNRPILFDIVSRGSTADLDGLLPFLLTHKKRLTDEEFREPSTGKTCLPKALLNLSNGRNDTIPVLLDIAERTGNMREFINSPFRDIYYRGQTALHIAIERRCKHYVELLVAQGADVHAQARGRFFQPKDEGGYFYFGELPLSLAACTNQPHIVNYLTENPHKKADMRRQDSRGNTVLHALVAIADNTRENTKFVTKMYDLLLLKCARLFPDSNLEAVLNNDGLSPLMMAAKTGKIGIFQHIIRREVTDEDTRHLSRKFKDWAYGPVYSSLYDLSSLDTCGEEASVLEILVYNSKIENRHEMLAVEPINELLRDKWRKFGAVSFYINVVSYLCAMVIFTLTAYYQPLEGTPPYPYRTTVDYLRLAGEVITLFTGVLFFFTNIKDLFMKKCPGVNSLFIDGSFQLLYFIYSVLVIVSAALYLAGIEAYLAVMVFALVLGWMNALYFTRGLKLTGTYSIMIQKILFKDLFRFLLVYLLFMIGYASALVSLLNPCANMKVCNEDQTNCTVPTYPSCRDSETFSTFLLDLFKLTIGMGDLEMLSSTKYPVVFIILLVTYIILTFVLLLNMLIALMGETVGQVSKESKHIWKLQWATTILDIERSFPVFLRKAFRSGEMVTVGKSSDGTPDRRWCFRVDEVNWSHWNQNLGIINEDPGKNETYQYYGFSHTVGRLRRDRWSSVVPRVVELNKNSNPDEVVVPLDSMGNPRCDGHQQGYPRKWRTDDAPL

CC(C)C[C@H](NC(=O)c1cc2ccccc2s1)C(=O)N1CCN(C(=O)[C@H](CO)NS(=O)(=O)c2ccc(Cl)cc2Cl)CC1 [GSK101]
agonist effect on [Ca2+]i (TRPV4 [1]; GSK101 50 nM, arachidonic acid 20 μM, 5′,6′-EET 5 μM): induced a significant increase in [Ca^2+]i
agonist effect on [Ca2+]i (TRPV4 [2]; GSK101 100 nM, quiescent mouse PSCs): produced a sustained elevation in [Ca^2+]i
agonist effect on [Ca2+]i (TRPV4 [3]; GSK101 100 nM, quiescent human PSCs): produced a sustained elevation in [Ca^2+]i

O=C(NC1(c2ccccc2)CC1)c1c(CN2CCC(N3CCCCC3)CC2)c(-c2cccc(C(F)(F)F)c2)nc2cc(Br)ccc12 [GSK2193874]
pancreatic cancer (PDAC) growth (KPCY cells): inhibited pancreatic cancer growth
serum SAA levels (KPCY cells): reduced serum SAA levels

Cc1c(C(=O)Nc2cccc(C(F)(F)F)c2)cc(-c2ccccc2)n1CCCN1CCOCC1 [HC067]
effect on AA- and 5′,6′-EET-induced [Ca2+]i increases (TRPV4 [1]; HC067 100 nM): inhibited
effect on GSK101 (50 nM)-induced [Ca2+]i increase (TRPV4 [1]; HC067 100 nM, RN1734 30 μM): inhibited
effect on shear stress-induced sustained [Ca2+]i elevation (TRPV4 [1]; HC067 1 μM, 12 dyne/cm^2 for 30 seconds): blocked the sustained [Ca^2+]i elevation, leaving only transient alterations in [Ca^2+]i
effect on Yoda1-stimulated sustained [Ca2+]i increase (TRPV4 [1]; HC067 1 μM, Yoda1 25 μM): completely blocked the Yoda1-stimulated (25 μM) sustained increase in [Ca^2+]i
effect on CCK-stimulated peak or sustained [Ca2+]i (pancreatic acini): did not affect the CCK-stimulated (1 nM) peak or sustained [Ca^2+]i changes
effect on GSK1016790A-induced sustained [Ca2+]i elevation (TRPV4 [2]; HC067 1 μM, mouse PSCs): blocked
effect on GSK1016790A-induced sustained [Ca2+]i elevation (TRPV4 [3]; HC067 1 μM, human PSCs): blocked

— patent publication US20250352615A1, “COMPOSITIONS AND METHODS FOR THE MODULATION OF PIEZO1 AND TRPV4” (Duke University, priority 2021, published 2025)
